{
  "source": "ChEMBL document CHEMBL3508693",
  "about": "(2016)",
  "key": {"[1]": {"assay": "% aliskiren hemifumarate recovered as M12 in faeces following single oral dose of 300 mg [14C]SPP100 studied in healthy men", "type": "ADME, organism-based, Feces", "conditions": "human, in vivo, at 300 mg"}, "[2]": {"assay": "% aliskiren hemifumarate recovered as M12 in urine and faeces following single oral dose of 300 mg [14C]SPP100 studied in healthy men", "type": "ADME, organism-based, Urine/Feces", "conditions": "human, in vivo, at 300 mg"}, "[3]": {"assay": "% of radioactivity recovered as M12 in faeces following intravenous administration of [14C] aliskiren hemifumarate at 10 mg.Kg-1 level in rat", "type": "ADME, organism-based, Albino HAN:WIST, Feces", "conditions": "in vivo"}, "[4]": {"assay": "% of radioactivity recovered as M12 in plasma following oral administration of [14C] aliskiren hemifumarate at 100 mg.Kg-1 level in rat", "type": "ADME, organism-based, Albino HAN:WIST", "conditions": "in vivo"}, "[5]": {"assay": "% aliskiren recovered as metabolite M12 in faeces following 10 day repeated oral administration of [14C] aliskiren hemifumarate at 100 mg.Kg-1 level studied in rat", "type": "ADME, organism-based, Albino HAN:WIST, Feces", "conditions": "in vivo, 240 h"}, "[6]": {"assay": "% of radioactivity recovered as M12 in urine following intravenous administration of [14C] aliskiren hemifumarate at 10 mg.Kg-1 level in rat", "type": "ADME, organism-based, Albino HAN:WIST", "conditions": "in vivo"}, "[7]": {"assay": "% aliskiren hemifumarate recovered as M12 in urine following single oral dose of 300 mg [14C]SPP100 studied in healthy men", "type": "ADME, organism-based", "conditions": "human, in vivo"}, "[8]": {"assay": "% of radioactivity recovered as M12 in faeces following oral administration of [14C] aliskiren hemifumarate at 100 mg.Kg-1 level in rat", "type": "ADME, organism-based, Albino HAN:WIST, Feces", "conditions": "in vivo"}, "[9]": {"assay": "% of radioactivity recovered as M12 in urine following oral administration of [14C] aliskiren hemifumarate at 100 mg.Kg-1 level in rat", "type": "ADME, organism-based, Albino HAN:WIST", "conditions": "in vivo"}, "[10]": {"assay": "% aliskiren recovered as metabolite M12 in plasma following 10 day repeated oral administration of [14C] aliskiren hemifumarate at 100 mg.Kg-1 level studied in rat", "type": "ADME, organism-based, Albino HAN:WIST", "conditions": "in vivo, 240 h"}, "[11]": {"assay": "% of radioactivity recovered as M12 in plasma following intravenous administration of [14C] aliskiren hemifumarate at 10 mg.Kg-1 level in rat", "type": "ADME, organism-based, Albino HAN:WIST", "conditions": "in vivo"}, "[12]": {"assay": "% aliskiren recovered as metabolite M12 in urine following 10 day repeated oral administration of [14C] aliskiren hemifumarate at 100 mg.Kg-1 level studied in rat", "type": "ADME, organism-based, Albino HAN:WIST", "conditions": "in vivo, 240 h"}, "[13]": {"assay": "% aliskiren hemifumarate recovered as M9 in urine and faeces following single oral dose of 300 mg [14C]SPP100 studied in healthy men", "type": "ADME, organism-based, Urine/Feces", "conditions": "human, in vivo"}, "[14]": {"assay": "% of radioactivity recovered as M9 from M2 in urine following oral administration of [14C] aliskiren hemifumarate at 100 mg.Kg-1 level in rat", "type": "ADME, organism-based, Albino HAN:WIST", "conditions": "in vivo"}, "[15]": {"assay": "% of radioactivity recovered as M9 from M2 in plasma following intravenous administration of [14C] aliskiren hemifumarate at 10 mg.Kg-1 level in rat", "type": "ADME, organism-based, Albino HAN:WIST", "conditions": "in vivo"}, "[16]": {"assay": "% aliskiren recovered as metabolite M9 in faeces following 10 day repeated oral administration of [14C] aliskiren hemifumarate at 100 mg.Kg-1 level studied in rat", "type": "ADME, organism-based, Albino HAN:WIST, Feces", "conditions": "in vivo, 240 h"}, "[17]": {"assay": "% of radioactivity recovered as M9 from M2 in plasma following oral administration of [14C] aliskiren hemifumarate at 100 mg.Kg-1 level in rat", "type": "ADME, organism-based, Albino HAN:WIST", "conditions": "in vivo"}, "[18]": {"assay": "% aliskiren recovered as metabolite M9 in plasma following 10 day repeated oral administration of [14C] aliskiren hemifumarate at 100 mg.Kg-1 level studied in rat", "type": "ADME, organism-based, Albino HAN:WIST", "conditions": "in vivo, 240 h"}, "[19]": {"assay": "% aliskiren hemifumarate recovered as M9 in urine following single oral dose of 300 mg [14C]SPP100 studied in healthy men", "type": "ADME, organism-based", "conditions": "human, in vivo"}, "[20]": {"assay": "% of radioactivity recovered as M9 from M2 in faeces following oral administration of [14C] aliskiren hemifumarate at 100 mg.Kg-1 level in rat", "type": "ADME, organism-based, Albino HAN:WIST, Feces", "conditions": "in vivo"}, "[21]": {"assay": "% aliskiren recovered as metabolite M9 in urine following 10 day repeated oral administration of [14C] aliskiren hemifumarate at 100 mg.Kg-1 level studied in rat", "type": "ADME, organism-based, Albino HAN:WIST", "conditions": "in vivo, 240 h"}, "[22]": {"assay": "% aliskiren hemifumarate recovered as M9 in faeces following single oral dose of 300 mg [14C]SPP100 studied in healthy men", "type": "ADME, organism-based, Feces", "conditions": "human, in vivo"}, "[23]": {"assay": "% of radioactivity recovered as M9 from M2 in urine following intravenous administration of [14C] aliskiren hemifumarate at 10 mg.Kg-1 level in rat", "type": "ADME, organism-based, Albino HAN:WIST", "conditions": "in vivo"}, "[24]": {"assay": "% of radioactivity recovered as M9 from M2 in faeces following intravenous administration of [14C] aliskiren hemifumarate at 10 mg.Kg-1 level in rat", "type": "ADME, organism-based, Albino HAN:WIST, Feces", "conditions": "in vivo"}, "CYP2A6 [25]": {"molecular_target": "T1, CYP2A6 (Homo sapiens, UniProt P11509)", "T1 sequence (P11509 whole entry)": "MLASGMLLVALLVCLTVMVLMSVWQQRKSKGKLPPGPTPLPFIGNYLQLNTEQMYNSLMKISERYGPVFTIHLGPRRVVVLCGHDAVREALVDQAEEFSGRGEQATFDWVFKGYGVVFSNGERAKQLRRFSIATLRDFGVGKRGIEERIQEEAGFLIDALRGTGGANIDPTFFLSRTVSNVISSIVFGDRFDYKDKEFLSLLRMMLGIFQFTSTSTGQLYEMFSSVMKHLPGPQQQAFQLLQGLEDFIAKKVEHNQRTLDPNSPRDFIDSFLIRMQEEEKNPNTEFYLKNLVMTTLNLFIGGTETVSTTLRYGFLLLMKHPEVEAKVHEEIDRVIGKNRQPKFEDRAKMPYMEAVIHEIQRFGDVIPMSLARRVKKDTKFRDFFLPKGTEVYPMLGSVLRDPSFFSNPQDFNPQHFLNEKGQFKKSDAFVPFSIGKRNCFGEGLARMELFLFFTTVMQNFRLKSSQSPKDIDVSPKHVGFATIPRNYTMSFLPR", "assay": "in vitro", "conditions": "probe coumarine"}, "CYP2C19 [26]": {"molecular_target": "T2, CYP2C19 (Homo sapiens, UniProt P33261)", "T2 sequence (P33261 whole entry)": "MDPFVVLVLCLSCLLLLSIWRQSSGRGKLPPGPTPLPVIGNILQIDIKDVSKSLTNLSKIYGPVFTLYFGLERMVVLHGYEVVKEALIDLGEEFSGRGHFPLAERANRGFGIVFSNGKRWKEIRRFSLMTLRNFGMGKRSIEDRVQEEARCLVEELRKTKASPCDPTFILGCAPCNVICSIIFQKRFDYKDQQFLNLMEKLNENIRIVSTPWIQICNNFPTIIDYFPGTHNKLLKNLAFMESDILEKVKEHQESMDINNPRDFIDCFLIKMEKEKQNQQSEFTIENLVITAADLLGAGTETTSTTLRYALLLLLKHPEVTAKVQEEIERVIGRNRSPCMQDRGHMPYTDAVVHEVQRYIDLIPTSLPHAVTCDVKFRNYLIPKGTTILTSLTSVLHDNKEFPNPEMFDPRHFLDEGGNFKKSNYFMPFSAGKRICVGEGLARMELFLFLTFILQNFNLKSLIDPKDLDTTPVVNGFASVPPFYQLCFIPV", "assay": "in vitro", "conditions": "probe (S)-mephenytoin (50 uM)", "description": "Inhibitory activity of 100 uM tranylcypromine on 49 Pmoles of cDNA-derived CYP2C19 enzyme in microsome prepared from human lymphoblastoid cell line"}, "CYP2C19 [27]": {"molecular_target": "T2, CYP2C19", "assay": "in vitro", "conditions": "probe (S)-mephenytoin (50 uM)", "remark": "listed apart in the source", "description": "Inhibitory activity of 100 uM tranylcypromine on 34 Pmoles of cDNA-derived CYP2C19 enzyme in microsome prepared from human lymphoblastoid cell line"}, "CYP2A6 [28]": {"molecular_target": "T1, CYP2A6", "assay": "in vitro", "conditions": "probe coumarine", "remark": "listed apart in the source"}, "CYP2A6 [29]": {"molecular_target": "T1, CYP2A6", "assay": "in vitro", "conditions": "probe coumarine", "remark": "listed apart in the source"}},
  "data": [
    {"smiles": "COCCCOc1cc(C[C@@H](C[C@H](NC(C)=O)[C@@H](O)C[C@H](C(=O)NCC(C)(C)C(N)=O)C(C)C)C(C)C)ccc1OC", "values": [
      {"measurement": "Compound recovery", "setting": "[1]", "result": "< 1", "unit": "%"},
      {"measurement": "Compound recovery", "setting": "[2]", "result": "< 1", "unit": "%"},
      {"measurement": "Compound recovery", "setting": "[3]", "result": "OUTCOME = Not detected or not investigated"},
      {"measurement": "Compound recovery", "setting": "[4]", "result": "OUTCOME = Not detected or not investigated"},
      {"measurement": "Compound recovery", "setting": "[5]", "result": "OUTCOME = Observed, VALUE = Measurable quantities"},
      {"measurement": "Compound recovery", "setting": "[6]", "result": "OUTCOME = Not detected or not investigated"},
      {"measurement": "Compound recovery", "setting": "[7]", "result": "OUTCOME = Not detected"},
      {"measurement": "Compound recovery", "setting": "[8]", "result": "<= 2%"},
      {"measurement": "Compound recovery", "setting": "[9]", "result": "OUTCOME = Not detected or not investigated"},
      {"measurement": "Compound recovery", "setting": "[10]", "result": "OUTCOME = Not detected"},
      {"measurement": "Compound recovery", "setting": "[11]", "result": "OUTCOME = Not detected or not investigated"},
      {"measurement": "Compound recovery", "setting": "[12]", "result": "OUTCOME = Not detected"}
    ]},
    {"smiles": "COCCCOc1cc(C[C@@H](C[C@H](N)[C@@H]2C[C@H](C(C)C)C(=O)O2)C(C)C)ccc1OC", "values": [
      {"measurement": "Compound recovery", "setting": "[13]", "result": "OUTCOME = Not detected"},
      {"measurement": "Compound recovery", "setting": "[14]", "result": "OUTCOME = Non-radiolabeled metabolite was observed by LC-MS"},
      {"measurement": "Compound recovery", "setting": "[15]", "result": "OUTCOME = Not detected or not investigated"},
      {"measurement": "Compound recovery", "setting": "[16]", "result": "OUTCOME = Observed, VALUE = Minor amounts"},
      {"measurement": "Compound recovery", "setting": "[17]", "result": "OUTCOME = Not detected or not investigated"},
      {"measurement": "Compound recovery", "setting": "[18]", "result": "OUTCOME = Observed, VALUE = Minor amounts"},
      {"measurement": "Compound recovery", "setting": "[19]", "result": "OUTCOME = Not detected"},
      {"measurement": "Compound recovery", "setting": "[20]", "result": "OUTCOME = Not detected or not investigated"},
      {"measurement": "Compound recovery", "setting": "[21]", "result": "OUTCOME = Observed, VALUE = Minor amounts"},
      {"measurement": "Compound recovery", "setting": "[22]", "result": "OUTCOME = Not detected"},
      {"measurement": "Compound recovery", "setting": "[23]", "result": "OUTCOME = Not detected or not investigated"},
      {"measurement": "Compound recovery", "setting": "[24]", "result": "OUTCOME = Not detected or not investigated"}
    ]},
    {"smiles": "N[C@@H]1C[C@H]1c1ccccc1.N[C@H]1C[C@@H]1c1ccccc1", "note": "[TRANYLCYPROMINE]", "values": [
      {"measurement": "inhibition at 100 µM", "setting": "CYP2A6 [25]", "result": 98, "unit": "%"},
      {"measurement": "inhibition at 100 µM", "setting": "CYP2C19 [26]", "result": 96, "unit": "%"},
      {"measurement": "inhibition at 100 µM", "setting": "CYP2C19 [27]", "result": 97, "unit": "%"},
      {"measurement": "inhibition at 100 µM", "setting": "CYP2A6 [28]", "result": 97, "unit": "%"},
      {"measurement": "inhibition at 100 µM", "setting": "CYP2A6 [29]", "result": 99, "unit": "%"}
    ]}
  ]
}
